Data reported in US20150141381A1, “TETRACYCLINE COMPOUNDS HAVING TARGET THERAPEUTIC ACTIVITIES” (Paratek Pharmaceuticals, Inc., priority 2001, published 2015).
Read-outs that look alike come from different tables or passages of the source.

Key:
[1] = system: S. aureus RN450; assay: In Vitro Anti-Bacterial Activity Assay (MIC), gram positive; format: cell-based; conditions: for MIC: Staphylococcus aureus, RN450, 18 h
[2] = system: E. coli mL308 225; assay: In Vitro Anti-Bacterial Activity Assay (MIC), gram negative; format: cell-based; conditions: for MIC: Escherichia coli, ML308225, 18 h
[3] = gram positive bacteria, read-out: Antibiotic Activity Gram + (MIC)
[4] = read-out: Antibiotic Activity Gram − (MIC)
[5] = gram negative bacteria, read-out: Antibiotic Activity Gram − (MIC)
[6] = MIC class, Table 3, read-out: Antibiotic Activity Gram +
[7] = MIC class, Table 3, read-out: Antibiotic Activity Gram −
[8] = read-out: Antibiotic Activity Gram + (MIC)
[9] = MIC class, Table 3 (Continued), read-out: Gram+ activity
[10] = MIC class, Table 3 (Continued), read-out: Gram− activity

Row | SMILES | MIC [1, 3] [µg/mL] | MIC [2, 5] [µg/mL] | MIC [1, 6] [µg/mL] | MIC [2, 7] [µg/mL] | further results
1 | COc1ccc(CNCCF)cc1-c1ccc(O)c2c1C[C@H]1C[C@H]3[C@H](N(C)C)C(O)=C(C(N)=O)C(=O)[C@@]3(O)C(O)=C1C2=O | < 4 | – | – | – | MIC [2, 4]: > 4 µg/mL
2 | CN(C)[C@@H]1C(O)=C(C(N)=O)C(=O)[C@@]2(O)C(O)=C3C(=O)c4c(O)ccc(CN5CCOCC5)c4C[C@H]3C[C@@H]12 | < 4 | > 4 | – | – | –
3 | COc1ccc(CN2CCCC2)cc1-c1ccc2c(c1O)C(=O)C1=C(O)[C@]3(O)C(=O)C(C(N)=O)=C(O)[C@@H](N(C)C)[C@@H]3[C@@H](O)[C@@H]1[C@H]2C [HC] | – | – | > 4 | > 4 | –
4 | CCN(CC)Cc1cc(-c2ccoc2)c2c(c1O)C(=O)C1=C(O)[C@]3(O)C(=O)C(C(N)=O)=C(O)[C@@H](N(C)C)[C@@H]3C[C@@H]1C2 | < 4 | > 4 | – | – | –
5 | CN(C)[C@@H]1C(O)=C(C(N)=O)C(=O)[C@@]2(O)C(O)=C3C(=O)c4c(O)ccc(C#CCCCC#N)c4C[C@H]3C[C@@H]12 [BB] | – | – | < 4 | < 4 | –
6 | COC(=O)c1cc(NC(=O)c2ccno2)cc(-c2ccc(O)c3c2C[C@H]2C[C@H]4[C@H](N(C)C)C(O)=C(C(N)=O)C(=O)[C@@]4(O)C(O)=C2C3=O)c1 [IK] | – | – | < 4 | > 4 | –
7 | COc1ccc(CNCc2cccc(C)c2)cc1-c1ccc(O)c2c1C[C@H]1C[C@H]3C(N(C)C)C(O)=C(C(N)=O)C(=O)[C@@]3(O)C(O)=C1C2=O (some centres unmarked) [HO] | – | – | < 4 | < 4 | –
8 | CN(C)[C@@H]1C(O)=C(C(N)=O)C(=O)[C@@]2(O)C(O)=C3C(=O)c4c(O)ccc(-c5ccc(C(=O)Cl)c6ccccc56)c4C[C@H]3C[C@@H]12 | < 4 | > 4 | – | – | –
9 | CN(C)c1cc(NC(=O)Oc2ccc(O)cc2)c(O)c2c1C[C@H]1C[C@H]3[C@H](N(C)C)C(O)=C(C(N)=O)C(=O)[C@@]3(O)C(O)=C1C2=O | – | – | – | – | MIC [1, 8]: > 4 µg/mL; MIC [2, 4]: > 4 µg/mL
10 | CN(C)c1cc(CN2CCCC2)c(O)c2c1C[C@H]1C[C@H]3[C@H](N(C)C)C(O)=C(C(N)=O)C(=O)[C@@]3(O)C(O)=C1C2=O | < 4 | > 4 | – | – | –
11 | Cc1cc(-c2ccc(O)c3c2C[C@H]2C[C@H]4[C@H](N(C)C)C(O)=C(C(N)=O)C(=O)[C@@]4(O)C(O)=C2C3=O)cc(C)n1 [PD] | – | – | < 4 | < 4 | –
12 | CN(C)Cc1ccc(-c2cc(N(C)C)c3c(c2O)C(=O)C2=C(O)[C@]4(O)C(=O)C(C(N)=O)=C(O)[C@@H](N(C)C)[C@@H]4C[C@@H]2C3)o1 [LI] | – | – | < 4 | > 4 | –
13 | CN(C)[C@@H]1C(O)=C(C(N)=O)C(=O)[C@@]2(O)C(O)=C3C(=O)c4c(O)ccc(C#Cc5ccc(N)cc5)c4C[C@H]3C[C@@H]12 [BE] | – | – | < 4 | > 4 | –
14 | CN(C)c1cc(CN2C3CCC2CC3)c(O)c2c1C[C@H]1C[C@H]3[C@H](N(C)C)C(O)=C(C(N)=O)C(=O)[C@@]3(O)C(O)=C1C2=O | < 4 | > 4 | – | – | –
15 | CN(C)[C@@H]1C(O)=C(C(N)=O)C(=O)[C@@]2(O)C(O)=C3C(=O)c4c(O)ccc(-c5ccncc5)c4C[C@H]3C[C@@H]12 | < 4 | < 4 | – | – | –
16 | CN(C)c1cc(CNC(=O)[C@@H]2CCCN2C)c(O)c2c1C[C@H]1C[C@H]3[C@H](N(C)C)C(O)=C(C(N)=O)C(=O)[C@@]3(O)C(O)=C1C2=O | < 4 | > 4 | – | – | –
17 | CN(C)[C@@H]1C(O)=C(C(N)=O)C(=O)[C@@]2(O)C(O)=C3C(=O)c4c(O)c(CN)cc(-c5ccc(F)cc5)c4C[C@H]3C[C@@H]12 [DF] | – | – | < 4 | > 4 | –
18 | CC(=O)c1cc(I)c(O)c2c1C[C@H]1C[C@H]3[C@H](N(C)C)C(O)=C(C(N)=O)C(=O)[C@@]3(O)C(O)=C1C2=O [JW] | – | – | > 4 | > 4 | –
19 | CN(C)c1cc(NC(=O)Oc2ccccc2)c(O)c2c1C[C@H]1C[C@H]3[C@H](N(C)C)C(O)=C(C(N)=O)C(=O)[C@@]3(O)C(O)=C1C2=O [drawing 3360] | – | – | – | – | MIC [1, 8]: > 4 µg/mL; MIC [2, 4]: > 4 µg/mL
20 | CN(C)C1C(O)=C(C(N)=O)C(=O)[C@@]2(O)C(O)=C3C(=O)c4c(O)ccc(CNC5CCCC5)c4C[C@H]3C[C@@H]12 (some centres unmarked) [NE] | – | – | < 4 | < 4 | –
21 | CC1c2ccc(C3(C)CCCC3)c(O)c2C(=O)C2=C(O)[C@]3(O)C(=O)C(C(N)=O)=C(O)[C@@H](N(C)C)[C@@H]3[C@@H](O)[C@@H]21 (some centres unmarked) | – | – | – | – | MIC [1, 9]: < 4 µg/mL; MIC [2, 10]: < 4 µg/mL
22 | CN(C)[C@@H]1C(O)=C(C(N)=O)C(=O)[C@@]2(O)C(O)=C3C(=O)c4c(O)ccc(C#CCCC#Cc5ccc(O)c6c5C[C@H]5C[C@H]7[C@H](N(C)C)C(O)=C(C(N)=O)C(=O)[C@@]7(O)C(O)=C5C6=O)c4C[C@H]3C[C@@H]12 [FM] | – | – | > 4 | > 4 | –

Row | SMILES | MIC [1, 3] [µg/mL] | MIC [2, 5] [µg/mL] | MIC [1, 6] [µg/mL] | MIC [2, 7] [µg/mL] | further results
23 | CN(C)c1cc(C#Cc2ccc(N)cc2)c(O)c2c1C[C@H]1C[C@H]3[C@H](N(C)C)C(O)=C(C(N)=O)C(=O)[C@@]3(O)C(O)=C1C2=O [CX] | – | – | > 4 | > 4 | –
24 | CN(C)c1cc(C#Cc2ccc(F)cc2)c(O)c2c1C[C@H]1C[C@H]3[C@H](N(C)C)C(O)=C(C(N)=O)C(=O)[C@@]3(O)C(O)=C1C2=O | – | – | – | – | MIC [1, 9]: < 4 µg/mL; MIC [2, 10]: < 4 µg/mL
25 | CN(C)[C@@H]1C(O)=C(C(N)=O)C(=O)[C@@]2(O)C(O)=C3C(=O)c4c(O)ccc(-c5ccc(NC(=O)C6CCCN6C(=O)C(F)(F)F)cc5)c4C[C@H]3C[C@@H]12 (some centres unmarked) [OH] | – | – | < 4 | > 4 | –
26 | COc1ccc(-c2ccc(O)c3c2C[C@H]2C[C@H]4[C@H](N(C)C)C(O)=C(C(N)=O)C(=O)[C@@]4(O)C(O)=C2C3=O)cc1 [drawing 3312] | – | – | – | – | Gram+ activity ([1]; MIC class, Table 3 (Continued)): ** (compounds with MIC less than or equal to 4 μg/ml are indicated with **); Gram− activity ([2]; MIC class, Table 3 (Continued)): ** (compounds with MIC less than or equal to 4 μg/ml are indicated with **)
27 | CN(C)[C@@H]1C(O)=C(C(N)=O)C(=O)[C@@]2(O)C(O)=C3C(=O)c4c(O)ccc(-c5ccc(/C=N/CC#N)cc5)c4C[C@H]3C[C@@H]12 | < 4 | > 4 | – | – | –
28 | NC(=O)C1=C(O)C[C@@H]2C[C@@H]3Cc4ccc(CN5CCCCC5)c(O)c4C(=O)C3=C(O)[C@]2(O)C1=O | > 4 | > 4 | – | – | –
29 | CCCCN(c1ccc2c(c1O)C(=O)C1=C(O)[C@]3(O)C(=O)C(C(N)=O)=C(O)[C@@H](N(C)C)[C@@H]3[C@@H](O)[C@@H]1[C@H]2C)C1CCN(C)CC1 | < 4 | > 4 | – | – | –
30 | C[C@H]1c2cccc(O)c2C(=O)C2=C(O)[C@]3(O)C(=O)C(C(N)=O)=C(O)[C@@H](N(C)C)[C@@H]3[C@@H](OC(=O)C34CC5CC(CC(C5)C3)C4)[C@@H]21 [T] | – | – | < 4 | > 4 | –
31 | CN(C)[C@@H]1C(O)=C(C(N)=O)C(=O)[C@@]2(O)C(O)=C3C(=O)c4c(O)ccc(C#N)c4C[C@H]3C[C@@H]12 | < 4 | < 4 | – | – | –
32 | CN(C)[C@@H]1C(O)=C(C(N)=O)C(=O)[C@@]2(O)C(O)=C3C(=O)c4c(O)cccc4/C(=C\c4ccc(C(F)(F)F)cc4)[C@H]3[C@H](O)[C@@H]12 [AC] | – | – | < 4 | > 4 | –
33 | CN(C)c1cc(CNCc2cc[n+]([O-])cc2)c(O)c2c1C[C@H]1C[C@H]3[C@H](N(C)C)C(O)=C(C(N)=O)C(=O)[C@@]3(O)C(O)=C1C2=O | > 4 | > 4 | – | – | –
34 | COC1C(C(N)=O)=C(O)[C@@H](N(C)C)[C@@H]2[C@@H](O)[C@H]3C(=C(O)[C@]12O)C(=O)c1c(O)cccc1[C@@H]3C (some centres unmarked) | > 4 | > 4 | – | – | –
35 | CN(C)[C@@H]1C(O)=C(C(N)=O)C(=O)[C@@]2(O)C(O)=C3C(=O)c4c(O)ccc(CC(Cl)C5=CCCCC5)c4C[C@H]3C[C@@H]12 (some centres unmarked) | – | – | – | – | MIC [1, 9]: < 4 µg/mL; MIC [2, 10]: < 4 µg/mL
36 | COc1cccc(C/C=C\c2ccc(O)c3c2C[C@H]2C[C@H]4[C@H](N(C)C)C(O)=C(C(N)=O)C(=O)[C@@]4(O)C(O)=C2C3=O)c1O | < 4 | < 4 | – | – | –
37 | CN(C)c1cc(CNc2nc(-c3ccc(F)cc3)co2)c(O)c2c1C[C@H]1C[C@H]3[C@H](N(C)C)C(O)=C(C(N)=O)C(=O)[C@@]3(O)C(O)=C1C2=O | > 4 | > 4 | – | – | –
38 | CC1c2cccc(O)c2C(=O)C2=C(O)[C@]3(O)C(=O)C(C(N)=O)=C(O)[C@@H](N(C)C)[C@@H]3[C@@H](OC(=O)C3CCCCC3)[C@@H]21 (some centres unmarked) | – | – | – | – | MIC [1, 9]: < 4 µg/mL; MIC [2, 10]: < 4 µg/mL
39 | COc1ccc(Cl)cc1-c1ccc(O)c2c1C[C@H]1C[C@H]3[C@H](N(C)C)C(O)=C(C(N)=O)C(=O)[C@@]3(O)C(O)=C1C2=O | – | – | – | – | MIC [1, 9]: < 4 µg/mL; MIC [2, 10]: < 4 µg/mL
40 | CCOC(=O)C(Cc1ccccc1)NCc1ccc(OC)c(-c2ccc(O)c3c2C[C@H]2C[C@H]4[C@H](N(C)C)C(O)=C(C(N)=O)C(=O)[C@@]4(O)C(O)=C2C3=O)c1 (some centres unmarked) [FZ] | – | – | < 4 | > 4 | –
41 | CN(C)c1cc(NS(=O)(=O)c2ccccc2)c(O)c2c1C[C@H]1C[C@H]3[C@H](N(C)C)C(O)=C(C(N)=O)C(=O)[C@@]3(O)C(O)=C1C2=O [AE] | – | – | < 4 | < 4 | –
42 | CN(C)[C@@H]1C(O)=C(C(N)=O)C(=O)[C@@]2(O)C(O)=C3C(=O)c4c(O)ccc(-c5ccc(-n6cccc6)nc5)c4C[C@H]3C[C@@H]12 | < 4 | < 4 | – | – | –
43 | CC(C)CNC(=O)Nc1ccc(-c2ccc(O)c3c2C[C@H]2C[C@H]4[C@H](N(C)C)C(O)=C(C(N)=O)C(=O)[C@@]4(O)C(O)=C2C3=O)cc1 | < 4 | < 4 | – | – | –
